According to paper PMC9090415, “Discovery of small molecule inhibitors of Plasmodium falciparum apicoplast DNA polymerase” (Journal of Enzyme Inhibition and Medicinal Chemistry, 2022):

Molecular target: P. falciparum apicoplast DNA polymerase (Pf-apPOL) (Plasmodium falciparum, UniProt Q8ILY1)
Experiment: Fluorescence-based high-throughput DNA polymerase assay (molecular beacon), primary screen and dose-response
Assay type: biochemical
Protocol: The HT assay employs a molecular beacon, a stem-loop DNA template with a Cy3 dye and the Black Hole Quencher on the 3′ and 5′ ends of the DNA, respectively. Pf-apPOL concentration is based on a calculated absorptivity of ε280 = 56750 M^−1 cm^−1. Reactions were carried out at 25 °C, using Corning 3575 […] (well-volume, 20 µL). Assays testing for compound inhibition composed of reaction buffer (pH 7.9 in 50 mM potassium acetate, 20 mM Tris-acetate and 10 mM magnesium acetate), Pf-apPOL (20 nM), DNA substrate (20 nM), dNTPs (6 µM), and compound (10 µM in DMSO). The DNA and nucleotide substrates (dNTPs) were at concentrations of 20 nM and 6 µM, respectively, in the assay. Pf-apPOL was incubated in the reaction buffer with dNTPs and the compound of interest (10 µM, in the assay) at 25 °C for 10 min. The DNA substrate was then added and the reaction was allowed to proceed for 90 min at 25 °C.
Each assay plate contained 16 negative controls (no Pf-apPOL, DMSO present) and 16 positive controls (Pf-apPOL present, no DMSO). The fluorescence of each well was determined using a BioTek Synergy Neo fluorescence plate reader using excitation and emission wavelengths of 555 and 570 nm, respectively.
In the above, Min is the average of fluorescence emission of the negative controls (substrate only), Max the average fluorescence emission from the positive controls (enzyme + substrate), and Test the emission from the assays in the presence of compounds (enzyme + compound + substrates). […] […] The IC50 of each compound was determined using Equation (2): (2) IC50= Vmax/(1+ (I/IC50)^n)
In the above, n measures cooperativity, with n > 1 indicating synergistic binding of more than a single molecule of the compound.
To identify apPOL inhibitors we utilised our previously developed high-throughput DNA polymerase assay. The HT assay is based on a molecular beacon DNA template that forms a stem-loop with a Cy3 dye and the Black Hole Quencher on the 3′ and 5′ ends of the DNA, respectively. DNA polymerase activity extends an annealed primer through the stem region, displacing the fluorophore from the quencher, thereby increasing its fluorescence (Figure 1(A)). The assay accurately recapitulates the kinetic behaviour of apPOL, as measured through more conventional low-throughput gel-based assays. The Z′ factor for the assay described here was 0.9 across all plates (data not shown).
Figure 1. High-throughput screening. (A) The fluorescent-based DNA polymerase assay used to screen the compound libraries. The DNA template strand is a hairpin loop with a primer annealed to the loop. The 3’ end of the primer is 11 bases away from the 6 bp duplex. Strand displacement activity of the DNA polymerase separates the Cy3 dye from the Black hole quencher leading to an increase in fluorescent signal. (B) The high-throughput assay workflow. The DNA polymerase is incubated with […] compound for 10 min prior to addition of the hairpin substrate. The reaction is quenched at 3 different time points and the fluorescent signal is measured and % inhibition is determined using the provided equation.

[1] = supplemental file 2, sheet IC50 nontoxic compounds; Pf-apPOL

Chain of P. falciparum apicoplast DNA polymerase (Pf-apPOL) (Q8ILY1 entry or part of it): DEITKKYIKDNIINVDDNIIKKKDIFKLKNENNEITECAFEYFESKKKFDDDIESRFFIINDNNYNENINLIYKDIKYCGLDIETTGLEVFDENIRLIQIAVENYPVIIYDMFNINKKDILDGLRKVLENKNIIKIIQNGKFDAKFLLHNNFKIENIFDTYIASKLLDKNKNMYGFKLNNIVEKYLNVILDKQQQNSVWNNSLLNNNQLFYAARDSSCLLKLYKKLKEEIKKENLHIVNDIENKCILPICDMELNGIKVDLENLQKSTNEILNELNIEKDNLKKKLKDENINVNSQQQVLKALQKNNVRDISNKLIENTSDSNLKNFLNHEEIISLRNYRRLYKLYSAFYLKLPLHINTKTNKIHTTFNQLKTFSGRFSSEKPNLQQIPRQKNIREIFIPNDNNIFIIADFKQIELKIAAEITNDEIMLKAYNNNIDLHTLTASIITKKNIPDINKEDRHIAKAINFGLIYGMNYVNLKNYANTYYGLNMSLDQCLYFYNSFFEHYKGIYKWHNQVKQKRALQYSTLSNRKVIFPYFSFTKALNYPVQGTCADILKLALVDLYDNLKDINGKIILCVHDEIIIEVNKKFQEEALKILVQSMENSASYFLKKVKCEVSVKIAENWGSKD

## CCCCCc1c2c(cc(O)c1C(=O)O)OC(=O)c1c(cc(OC)cc1C(=O)CCCC)O2 [Molecule 24, CCCCCc1c2Oc3cc(OC)cc(c3C(=O)Oc2cc(c1C(=O)O)O)C(=O)CCCC]
DRC-1; concentration 2.5; 10'
  % inhibition Apo pol 10': 18.1675%
DRC-1; concentration 2.5; 90'
  % inhibition Apol 90': 17.5572%
DRC-1; concentration 2.5; 180'
  % inhibition apPOL 180': 13.8829%
DRC-1; concentration 5; 10'
  % inhibition Apo pol 10': 31.5197%
DRC-1; concentration 5; 90'
  % inhibition Apol 90': 20.3733%
DRC-1; concentration 5; 180'
  % inhibition apPOL 180': 11.4977%
DRC-1; concentration 10; 10'
  % inhibition Apo pol 10': 51.0452%
DRC-1; concentration 10; 90'
  % inhibition Apol 90': 38.7515%
DRC-1; concentration 10; 180'
  % inhibition apPOL 180': 28.4609%
DRC-1; concentration 20; 10'
  % inhibition Apo pol 10': 86.3655%
DRC-1; concentration 20; 90'
  % inhibition Apol 90': 81.3702%
DRC-1; concentration 20; 180'
  % inhibition apPOL 180': 74.6955%
DRC-1; concentration 40; 10'
  % inhibition Apo pol 10': 94.8127%
DRC-1; concentration 40; 90'
  % inhibition Apol 90': 91.3399%
DRC-1; concentration 40; 180'
  % inhibition apPOL 180': 88.9652%
DRC-1; concentration 80 (unit not given); 10'
  % inhibition Apo pol 10': 96.1248%
DRC-1; concentration 80; 90'
  % inhibition Apol 90': 93.64%
DRC-1; concentration 80; 180'
  % inhibition apPOL 180': 92.215%
DRC-2; 5'; concentration 2.5
  % inhibition Apo pol 5': 11%
DRC-2; 40'; concentration 10
  % inhibition Apol 40': 51%
DRC-2; 40'; concentration 20
  % inhibition Apol 40': 43%
DRC-2; 90'; concentration 2.5
  % inhibition ApPOL 90': 11%
DRC-2; 90'; concentration 10
  % inhibition ApPOL 90': 51%
DRC-2; 180'; concentration 5
  % inhibition apPOL 180': 11%
DRC-2; 180'; concentration 10
  % inhibition apPOL 180': 43%
DRC-2; concentration 2.5; 5'
  % inhibition Apo pol 5': 11%
DRC-2; concentration 2.5; 40'
  % inhibition Apol 40': 14%
DRC-2; concentration 2.5; 90'
  % inhibition ApPOL 90': 11%
DRC-2; concentration 2.5; 180'
  % inhibition apPOL 180': 6%
DRC-2; concentration 5; 5'
  % inhibition Apo pol 5': 18%
DRC-2; concentration 5; 40'
  % inhibition Apol 40': 20%
DRC-2; concentration 5; 90'
  % inhibition ApPOL 90': 19%
DRC-2; concentration 5; 180'
  % inhibition apPOL 180': 11%
DRC-2; concentration 10; 5'
  % inhibition Apo pol 5': 42%
DRC-2; concentration 10; 40'
  % inhibition Apol 40': 51%
DRC-2; concentration 10; 90'
  % inhibition ApPOL 90': 51%
DRC-2; concentration 10; 180'
  % inhibition apPOL 180': 43%
DRC-2; concentration 20; 5'
  % inhibition Apo pol 5': 35%
DRC-2; concentration 20; 40'
  % inhibition Apol 40': 43%
DRC-2; concentration 20; 90'
  % inhibition ApPOL 90': 41%
DRC-2; concentration 20; 180'
  % inhibition apPOL 180': 32%
DRC-2; concentration 40; 5'
  % inhibition Apo pol 5': 49%
DRC-2; concentration 40; 40'
  % inhibition Apol 40': 65%
DRC-2; concentration 40; 90'
  % inhibition ApPOL 90': 66%
DRC-2; concentration 40; 180'
  % inhibition apPOL 180': 62%
DRC-2; concentration 80; 5'
  % inhibition Apo pol 5': 56%
DRC-2; concentration 80; 40'
  % inhibition Apol 40': 76%
DRC-2; concentration 80; 90'
  % inhibition ApPOL 90': 80%
DRC-2; concentration 80; 180'
  % inhibition apPOL 180': 81%
Primary screen value of the 186 hits; unit not given; 90 min, 10 µM
  DNA Pol: 33
Primary screen value; head prints only 'DNA Pol'; 90 min, 10 µM
  DNA Pol: 33

## Cc1cccc2c(C(=O)NC(C)C)cc(N(C)C)nc12 [Molecule 47]
[1]
  IC50: 15.9 µM

## O=C(Nc1nnc(-c2ccno2)o1)c1ccc2c(c1)OCO2 [KU0171343]
186 hits, value of the hit list (primary screen); unit not given; 90 min, 10 µM
  DNA Pol: 40
DRC-1; 10'; concentration 2.5
  % inhibition Apo pol 10': 0.3504%
DRC-1; 10'; concentration 5
  % inhibition Apo pol 10': 4.323%
DRC-1; 10'; concentration 10
  % inhibition Apo pol 10': 19.3402%
DRC-1; 10'; concentration 20
  % inhibition Apo pol 10': 32.3938%
DRC-1; 10'; concentration 40
  % inhibition Apo pol 10': 61.4938%
DRC-1; 10'; concentration 80
  % inhibition Apo pol 10': 79.918%
DRC-1; 90'; concentration 2.5
  % inhibition Apol 90': -7.247%
DRC-1; 90'; concentration 5
  % inhibition Apol 90': -7.662%
DRC-1; 90'; concentration 10
  % inhibition Apol 90': 0.8301%
DRC-1; 90'; concentration 20
  % inhibition Apol 90': 8.774%
DRC-1; 90'; concentration 40
  % inhibition Apol 90': 33.5392%
DRC-1; 90'; concentration 80
  % inhibition Apol 90': 60.7945%
DRC-1; 180'; concentration 2.5
  % inhibition apPOL 180': -15.466%
DRC-1; 180'; concentration 5
  % inhibition apPOL 180': -16.6627%
DRC-1; 180'; concentration 10
  % inhibition apPOL 180': -10.0119%
DRC-1; 180'; concentration 20
  % inhibition apPOL 180': -7.297%
DRC-1; 180'; concentration 40
  % inhibition apPOL 180': 11.9639%
DRC-1; 180'; concentration 80
  % inhibition apPOL 180': 37.6873%
DRC-2, 5', concentration 2.5
  % inhibition Apo pol 5': 4.65%
DRC-2, 5', concentration 5
  % inhibition Apo pol 5': 2.76%
DRC-2, 5', concentration 10
  % inhibition Apo pol 5': 18%
DRC-2, 5', concentration 20
  % inhibition Apo pol 5': 19%
DRC-2, 5', concentration 40
  % inhibition Apo pol 5': 33%
DRC-2, 5', concentration 80
  % inhibition Apo pol 5': 26%
DRC-2, 40', concentration 2.5
  % inhibition Apol 40': -1.21%
DRC-2, 40', concentration 5
  % inhibition Apol 40': -4.25%
DRC-2, 40', concentration 10
  % inhibition Apol 40': 14%
DRC-2, 40', concentration 20
  % inhibition Apol 40': 14%
DRC-2, 40', concentration 40
  % inhibition Apol 40': 39%
DRC-2, 40', concentration 80
  % inhibition Apol 40': 51%
DRC-2, 90', concentration 2.5
  % inhibition ApPOL 90': -3.2%
DRC-2, 90', concentration 5
  % inhibition ApPOL 90': -8%
DRC-2, 90', concentration 10
  % inhibition ApPOL 90': 11%
DRC-2, 90', concentration 20
  % inhibition ApPOL 90': 10%
DRC-2, 90', concentration 40
  % inhibition ApPOL 90': 36%
DRC-2, 90', concentration 80
  % inhibition ApPOL 90': 55%
DRC-2, 180', concentration 2.5
  % inhibition apPOL 180': -8%
DRC-2, 180', concentration 5
  % inhibition apPOL 180': -14%
DRC-2, 180', concentration 10
  % inhibition apPOL 180': 1.55%
DRC-2, 180', concentration 20
  % inhibition apPOL 180': 0.368%
DRC-2, 180', concentration 40
  % inhibition apPOL 180': 25%
DRC-2, 180', concentration 80
  % inhibition apPOL 180': 51%
DRC-2; 40'; concentration 10
  % inhibition Apol 40': 14%
DRC-2; 40'; concentration 20
  % inhibition Apol 40': 14%
DRC-2; 40'; concentration 80
  % inhibition Apol 40': 51%
DRC-2; 90'; concentration 5
  % inhibition ApPOL 90': -8%
DRC-2; 180'; concentration 2.5
  % inhibition apPOL 180': -8%
DRC-2; 180'; concentration 80
  % inhibition apPOL 180': 51%
Primary screen value, 'DNA Pol' only; 90 min, 10 µM
  DNA Pol: 40

## CO/N=C(\C(=O)N[C@@H]1C(=O)N2C(C(=O)O)=C(CSc3nc(=O)c(O)nn3C)CSC12)c1csc(N)n1 (stereo partly shown) [Molecule 83]
[1]
  IC50: 18.7 µM
